Publication PMC6362004, “Minor sequence modifications in temporin B cause drastic changes in antibacterial potency and selectivity by fundamentally altering membrane activity” (Scientific Reports, 2019)
In brackets after ≈: the same amount, converted by molar mass. Peptide text beside a SMILES is read from it.

Experiments:
[1] = system: EMR Staphylococcus aureus-16 NCTC 13277; format: cell-based; details: NCTC 13277, 18 h
Description: (§1) The antibacterial activity of the peptides studied was assessed through a modified two-fold broth microdilution assay, as described before. Briefly, a two-fold dilution of peptide stock solutions was performed in either non-cation adjusted Müller-Hinton broth (MHB) or Tryptic Soy broth (TSB) in a 96-well polypropylene microtiter plate. Then, 100 µl of bacterial suspension (back diluted from overnight cultures to an A600 of 0.01) were added to 100 µl of peptide solution in each well of the plate. Growth and sterility controls were present for each experiment. The plate was incubated at 37 °C for 18 hours without shaking and the MIC was defined as the lowest concentration where no visible growth could be detected by measuring the absorbance (A600) on an Omega plate reader.

[2] = system: VR Enterococcus faecalis NCTC 12201; format: cell-based; details: NCTC 12201, 18 h
Description: as §1

[3] = system: VS Enterococcus faecalis NCTC 775; format: cell-based; details: NCTC 775, 18 h
Description: as §1

[4] = system: Pseudomonas aeruginosa NCTC 13437; format: cell-based; details: NCTC 13437, 18 h
Description: as §1

[5] = system: EMR Staphylococcus aureus−15 NCTC 13616; format: cell-based; details: NCTC 13616, 18 h
Description: as §1

[6] = system: Acinetobacter baumanii AYE; format: cell-based; details: 18 h
Description: as §1

[7] = system: Pseudomonas aeruginosa PAO1; format: cell-based; details: PAO1, 18 h
Description: as §1

[8] = system: MS Staphylococcus aureus NCTC 6571; format: cell-based; details: NCTC 6571, 18 h
Description: as §1

[9] = system: E. coli cytoplasmic membrane; details: cited from earlier work
Source text: Here we investigated whether a combined biophysical approach is capable of discriminating the species specific antibacterial mechanisms of action between three analogues of temporin B. Although structures for the three peptides solved in anionic SDS were noticeably different, when applied to model membranes, little difference in conformation could be discerned in the steady-state. To address this, we developed an approach using the Port-a-Patch® tool from Nanion Technologies (Munich, Germany) and correlated the findings obtained from patch-clamp analysis to the primary sequence and the biophys ...

[10] = system: Gram-negative bacteria; details: cited from earlier work

Row | Compound | MIC, peptide concentration [1] [µg/mL] | MIC, peptide concentration [5] [µg/mL] | MIC, peptide concentration [7] [µg/mL] | other results
1 | CC[C@H](C)[C@H](NC(=O)[C@@H]1CCCN1C(=O)[C@H](CC(C)C)NC(=O)[C@H](CC(C)C)NC(=O)[C@H](CCCCN)NC(=O)[C@@H](N)CCCCN)C(=O)N[C@H](C(=O)N[C@@H](C)C(=O)N[C@@H](CC(N)=O)C(=O)N[C@@H](CC(C)C)C(=O)N[C@@H](CC(C)C)C(=O)N[C@@H](CCCCN)C(=O)N[C@@H](CO)C(=O)N[C@@H](CC(C)C)C(=O)N[C@@H](CC(C)C)C(N)=O)C(C)C [Temporin B KKG6A] (H-KKLLPIVANLLKSLL-NH2) | >128 | >128 |  | MIC, peptide concentration [2]: >128 µg/mL; MIC, peptide concentration [3]: >128 µg/mL; MIC, peptide concentration [4]: >128 µg/mL
2 | CC[C@H](C)[C@H](NC(=O)[C@@H]1CCCN1C(=O)[C@H](CC(C)C)NC(=O)[C@@H](N)Cc1ccccc1)C(=O)N[C@H](C(=O)NCC(=O)N[C@@H](CC(C)C)C(=O)N[C@@H](CC(C)C)C(=O)N[C@@H](CCCCN)C(=O)N[C@@H](CO)C(=O)N[C@@H](CC(C)C)C(=O)N[C@@H](CC(C)C)C(=O)N[C@@H](CCCCN)C(N)=O)C(C)C [Temporin B L1FK] (H-FLPIVGLLKSLLK-NH2) | 16 (≈ 11.1 µM) | 16 (≈ 11.1 µM) | 128 (≈ 88.9 µM) | MIC, peptide concentration [6]: 8 µg/mL (≈ 5.56 µM)
3 | CC[C@H](C)[C@H](NC(=O)[C@@H]1CCCN1C(=O)[C@H](CC(C)C)NC(=O)[C@@H](N)CC(C)C)C(=O)N[C@H](C(=O)NCC(=O)N[C@@H](CC(N)=O)C(=O)N[C@@H](CC(C)C)C(=O)N[C@@H](CC(C)C)C(=O)N[C@@H](CCCCN)C(=O)N[C@@H](CO)C(=O)N[C@@H](CC(C)C)C(=O)N[C@@H](CC(C)C)C(N)=O)C(C)C [Temporin B] (H-LLPIVGNLLKSLL-NH2) | 32 (≈ 23 µM) |  | >128 | MIC, peptide concentration [8]: 16 µg/mL (≈ 11.5 µM)
4 | LL-37: human antimicrobial peptide |  |  |  | Time to permeabilization of the E. coli cytoplasmic membrane and induction of oxidative stress [9]: around 25 minutes
5 | temporin L |  |  |  | MIC [10]: 2 to 20 µM
